Test results: patent publication US8372847B2, “Pyrazinone modulator of corticotropin-releasing factor receptor activity” (Bristol-Myers Squibb Company, priority 2008, dated 2013)

How the values were obtained:
[1] = target: T1, CRF1 receptor (Rattus norvegicus, UniProt P35353); test: CRF1 binding assay, 125I-o-CRF competition, rat frontal cortex membrane; conditions: n=10; for Hill Slope: 125I-o-CRF binding, rat frontal cortex membrane; for IC50: 5 point and 10 point competition assays, read-out: IC50, inhibition of 125I-o-CRF binding to rat frontal cortex membrane
T1 construct: rat frontal cortex membrane as the receptor source; from tissue; host or cells: rat frontal cortex
T1 sequence (P35353 24-415): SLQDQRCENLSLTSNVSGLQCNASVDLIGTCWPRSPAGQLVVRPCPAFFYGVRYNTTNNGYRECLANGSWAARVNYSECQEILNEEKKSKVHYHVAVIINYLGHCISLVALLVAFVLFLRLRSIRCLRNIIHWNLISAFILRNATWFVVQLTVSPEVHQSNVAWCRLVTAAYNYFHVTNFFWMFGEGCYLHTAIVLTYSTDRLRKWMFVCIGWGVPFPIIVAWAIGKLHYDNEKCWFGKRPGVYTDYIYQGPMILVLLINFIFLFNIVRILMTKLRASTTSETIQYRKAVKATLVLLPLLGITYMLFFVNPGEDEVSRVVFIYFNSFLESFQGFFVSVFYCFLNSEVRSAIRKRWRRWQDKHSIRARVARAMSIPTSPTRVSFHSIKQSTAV
Procedure: CRF1 Binding Assay. Frozen rat frontal cortex was thawed rapidly in assay buffer containing 50 mM Hepes (pH 7.0 at 23° C.), 10 mM MgCl2, 2 mM EGTA, 1 μg/ml aprotinin, 1 μg/ml leupeptin, 1 μg/ml pepstatin A, 0.005% Triton X-100, 10 U/ml bacitracin and 0.1% ovalbumin and homogenized. The suspension was centrifuged at 32000×g for 30 minutes. The resulting supernatant was discarded and the pellet resuspended by homogenization in assay buffer and centrifuged again. The supernatant was discarded and the pellet resuspended by homogenization in assay buffer and frozen at −70° C. On the day of the experiment aliquots of the homogenate were thawed quickly and 25 μg/well added to 150 pM ^125I-ovine-CRF (^125I-o-CRF) and drugs in a total volume of 100 μl assay buffer. The assay mixture was incubated for 2 hr at 21° C. Bound and free radioligand were then separated by rapid filtration using glass fiber filters (Whatman GF/B, pretreated with 0.3% PEI (polyethylenimine)) on a Brandel Cell Harvester. Filters were then washed multiple times with ice cold wash buffer (PBS w/o Ca^2+ and Mg^2+, 0.01% Triton X-100; pH 7.0 at 23° C.). Non-specific binding was defined using 1 μM DMP696, a CRF1 selective antagonist [Li, Y-W. et al., CNS Drug Reviews 11: 21-52, (2005)]. Filters were then counted in a Wallac Wizard gamma counter. IC50 values were determined in a five point (five drug concentrations) or ten point (ten drug concentrations) competition assay using non-linear regression by Microsoft Excel-fit.
Binding Results. The primary screen to determine binding potency (IC50 value) of (S)-4-(1-cyclopropyl-2-methoxyethyl)-6-(6-(difluoromethoxy)-2,5-dimethylpyridin-3-ylamino)-5-oxo-4,5-dihydropyrazine-2-carbonitrile at the CRF1 receptor was a competition binding experiment utilizing ^125I-o-CRF as the labeled peptide ligand and rat frontal cortex membrane as the receptor source. […] (S)-4-(1-Cyclopropyl-2-methoxyethyl)-6-(6-(difluoromethoxy)-2,5-dimethylpyridin-3-ylamino)-5-oxo-4,5-dihydropyrazine-2-carbonitrile also bound with high affinity to the native CRF1 receptors present on the human retinoblastoma cell line Y79.

[2] = test system: Male Sprague-Dawley rats; test: Situational anxiety behavioral model in rats (latency to exit dark cylinder into open field); type: in vivo, rat
Description: Situational Anxiety Behavioral Studies in Rats. (S)-4-(1-Cyclopropyl-2-methoxyethyl)-6-(6-(difluoromethoxy)-2,5-dimethylpyridin-3-ylamino)-5-oxo-4,5-dihydropyrazine-2-carbonitrile has been evaluated in a situational anxiety model to evaluate its anxiolytic potential. In this model, rats are placed in a small, darkened chamber located in an unfamiliar open field. Vehicle-treated rats spend most of the time within the chamber, consistent with a heightened state of anxiety [Takahashi L. K. et al, Behav. Neurosci. 103: 648-654, (1989)]. This model is sensitive to anxiolytics, including benzodiazepines such as chlordiazepoxide [Yang X-M. et al, J. Pharmacol. Exp. Ther. 255: 1064-1070, (1990)]. In addition, previous CRF1 antagonists, such as DMP696 and DMP904 [McElroy J. F. et al., Psychopharmacology 165: 86-92, (2002); Lelas S. et al., J. Pharmacol. Exp. Ther. 309: 293-302, (2004)] were effective this model. The effects of (S)-4-(1-cyclopropyl-2-methoxyethyl)-6-(6-(difluoromethoxy)-2,5-dimethylpyridin-3-ylamino)-5-oxo-4,5-dihydropyrazine-2-carbonitrile were compared with those of anxiolytic standards chlordiazepoxide (Librium®) and diazepam (Valium®) in this model. Male Sprague-Dawley rats weighing 180-300 g were purchased from Charles River Laboratories (Wilmington, Mass.). The rats were housed individually in suspended wire cages in colony rooms maintained at a constant temperature (21±2° C.) and humidity (50±10%). The rooms were illuminated 12 hours per day. The rats had ad libitum access to food and water throughout the studies. Behavioral studies were conducted between 0600 and 1300 h. Animals were maintained in accordance with the guidelines of the Animal Care and Use Committee of the Bristol-Myers Squibb Company, the “Guide for Care and Use of Laboratory Animals” (Institute of Animal Laboratory Resources, 1996), and the guidelines published in the National Institutes of Health Guide for the Care and Use of Laboratory Animals. Research protocols were approved by the Bristol-Myers Squibb Company Animal Care and Use Committee. All compounds were prepared in 0.25% methylcellulose and administered PO. Chlordiazepoxide, diazepam, and desipramine were purchased from Sigma Chemical Company. (S)-4-(1-Cyclopropyl-2-methoxyethyl)-6-(6-(difluoromethoxy)-2,5-dimethylpyridin-3-ylamino)-5-oxo-4,5-dihydropyrazine-2-carbonitrile was dosed in the volume of 2 ml/kg. All standards were dosed in the volume of 2 ml/kg. For all tests, data were analyzed by analysis of variance, followed by Dunnett's t-tests for individual comparisons. The significance value was set at 0.05. The data are presented in the text and figures as mean±standard error of the mean (SEM). Male Sprague-Dawley rats were habituated to handling and dosing the day before testing. On the day of testing, all compounds were administered PO by gavage 60 minutes before behavioral testing. To initiate testing, each animal was placed in a small galvanized steel cylinder (14 cm length, 10 cm diameter), which was placed lengthwise against one wall of an illuminated open field (106 cm length×92 cm width×50 cm height). The open field was illuminated by a 60-W incandescent bulb and illumination was titrated by a powerstat transformer to a 30-lux reading at the entrance to the cylinder. Behavior was assessed for 15 minutes by a trained observer unaware of treatment assignment. The latency of the animal to exit the cylinder, defined by the placement of all four paws into the open field, and explore the open field was recorded (in seconds). […] The Plexiglas chamber and the cylinder were cleaned with 1.0% glacial acetic acid between animals to prevent olfactory cues from influencing the behavior of subsequently tested animals. Following behavioral testing, animals were sacrificed and plasma samples and brains were taken for analysis of plasma exposure and central receptor occupancy.

SMILES	Hill Slope [1]	IC50 [1]	effect on exit latency ([2]; 0.56 mg/kg PO, dose-response study)	effect on exit latency ([2]; 1.0 mg/kg PO, dose-response study)	significant decrease of exit latency ([2]; 1.0 mg/kg PO, single-dose study)	decrease in exit latency relative to vehicle-treated controls ([2]; 1.8 mg/kg PO, dose-response study)	decrease in exit latency ([2]; 1.8 mg/kg PO, single-dose study)	decrease in exit latency relative to vehicle-treated controls ([2]; 3.0 mg/kg PO, dose-response study)	decrease in exit latency ([2]; 3.0 mg/kg PO, single-dose study)	lowest effective dose (decrease of exit latency) ([2]; PO, 60 minutes before testing)	anxiolytic-like effects, potency compared with standards ([2]; PO, summary)	decrease in exit latency ([2]; 10 mg/kg, positive control, dose-response study)	decrease in exit latency ([2]; 10 mg/kg, positive control, first single-dose study)	decrease in exit latency ([2]; 10 mg/kg, positive control, second single-dose study)	decrease in exit latency ([2]; 10 mg/kg, positive control, third single-dose study)
COC[C@H](C1CC1)n1cc(C#N)nc(Nc2cc(C)c(OC(F)F)nc2C)c1=O [(S)-4-(1-cyclopropyl-2-methoxyethyl)-6-(6-(difluoromethoxy)-2,5-dimethylpyridin-3-ylamino)-5-oxo-4,5-dihydropyrazine-2-carbonitrile]	0.94±0.03	0.86 ± 0.04 nM	did not significantly alter exit latency	did not significantly alter exit latency	but not of 1.0 mg/kg	60%	53%	56%	51%	1.8 mg/kg	comparable potency to the benzodiazepines diazepam and chlordiazepoxide	–	–	–	–
COCC(COC)Nc1nc(C)nc2c(-c3ccc(Cl)cc3Cl)c(C)nn12 [DMP696]	1.00±0.02	1.39 ± 0.09 nM	–	–	–	–	–	–	–	–	–	62%	57%	74%	81%
